How the values were obtained:
[1] = target: T1, mouse Siglec-2-Fc-Avi (CD22) (Mus musculus, UniProt P35329); assay: SPR binding affinity to mouse CD22; conditions: steady-state analysis
T1 construct: made in house
T1 sequence (P35329 22-708 limits assumed): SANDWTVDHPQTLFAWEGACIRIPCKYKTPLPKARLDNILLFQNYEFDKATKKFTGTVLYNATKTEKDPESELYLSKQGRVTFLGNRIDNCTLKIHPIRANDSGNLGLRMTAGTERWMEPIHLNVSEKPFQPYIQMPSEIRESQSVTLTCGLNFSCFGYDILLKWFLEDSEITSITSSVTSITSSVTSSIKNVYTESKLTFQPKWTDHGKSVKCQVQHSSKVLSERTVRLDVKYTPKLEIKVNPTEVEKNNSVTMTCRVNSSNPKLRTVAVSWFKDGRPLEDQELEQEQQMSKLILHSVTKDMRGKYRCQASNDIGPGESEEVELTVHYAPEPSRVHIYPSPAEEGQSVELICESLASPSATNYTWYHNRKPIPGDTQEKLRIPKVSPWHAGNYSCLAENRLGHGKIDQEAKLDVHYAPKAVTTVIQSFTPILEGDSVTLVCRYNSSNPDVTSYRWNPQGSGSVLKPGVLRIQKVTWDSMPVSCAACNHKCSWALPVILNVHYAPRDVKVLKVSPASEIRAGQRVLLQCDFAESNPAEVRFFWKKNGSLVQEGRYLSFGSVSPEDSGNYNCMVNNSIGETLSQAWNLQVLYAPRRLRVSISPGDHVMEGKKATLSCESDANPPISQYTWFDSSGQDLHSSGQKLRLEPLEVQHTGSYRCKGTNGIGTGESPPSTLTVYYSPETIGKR
In short: (§1)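 Using a Biacore 8K, compounds were tested against biotinylated CD22 captured after sialidase treatment. The running buffer held 1% DMSO, corrected with a 0.5–2% DMSO series. Affinity was derived by steady-state analysis.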

[2] = target: T2, human Siglec-2/CD22 protein (Homo sapiens, UniProt P20273); assay: SPR binding affinity to human CD22; conditions: steady-state analysis
T2 construct: purchased Acro Biosystems SI2-H82E3
T2 sequence (P20273 20-847): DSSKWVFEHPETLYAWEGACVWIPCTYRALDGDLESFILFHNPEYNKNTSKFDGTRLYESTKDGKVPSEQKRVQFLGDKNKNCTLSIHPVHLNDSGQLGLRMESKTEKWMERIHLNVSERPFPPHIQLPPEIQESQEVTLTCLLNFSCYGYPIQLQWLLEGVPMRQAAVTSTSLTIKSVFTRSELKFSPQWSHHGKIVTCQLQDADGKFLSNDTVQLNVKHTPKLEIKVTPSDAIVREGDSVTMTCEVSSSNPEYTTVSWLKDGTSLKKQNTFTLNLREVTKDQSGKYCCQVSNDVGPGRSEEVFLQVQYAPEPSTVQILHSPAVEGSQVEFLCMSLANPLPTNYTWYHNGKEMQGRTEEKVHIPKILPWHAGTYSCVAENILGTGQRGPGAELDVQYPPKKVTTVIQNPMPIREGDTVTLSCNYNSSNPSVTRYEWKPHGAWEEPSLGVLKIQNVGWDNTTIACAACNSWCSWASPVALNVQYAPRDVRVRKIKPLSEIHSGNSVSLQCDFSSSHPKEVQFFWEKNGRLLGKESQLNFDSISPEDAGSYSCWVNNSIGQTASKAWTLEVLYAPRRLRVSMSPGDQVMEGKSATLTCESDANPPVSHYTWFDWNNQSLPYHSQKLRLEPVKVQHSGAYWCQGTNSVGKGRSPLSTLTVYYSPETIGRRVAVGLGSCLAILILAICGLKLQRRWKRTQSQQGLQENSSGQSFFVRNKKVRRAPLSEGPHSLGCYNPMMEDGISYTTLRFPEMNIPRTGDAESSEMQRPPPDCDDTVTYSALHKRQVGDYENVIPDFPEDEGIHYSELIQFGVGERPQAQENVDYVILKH
In short: as §1

cynomolgus Siglec-2/CD22 = cynomolgus Siglec-2/CD22 (Macaca fascicularis, UniProt A0A2K5WCZ6); assay: biochemical; format: binding; conditions: SPR, steady-state analysis; read-out: Affinity cyno CD22
In short: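 Compound binding measured by steady-state SPR analysis, 120 s dissociation, in HEPES-NaCl-Tween buffer pH 7.5 containing 1% DMSO, DMSO solvent-corrected. Surface: cyno CD22, sialic acids first stripped by SialoExo for 4 h at 37° C., then amine-coupled onto CM5.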

Sequence of cynomolgus Siglec-2/CD22 (A0A2K5WCZ6 entry or part of it): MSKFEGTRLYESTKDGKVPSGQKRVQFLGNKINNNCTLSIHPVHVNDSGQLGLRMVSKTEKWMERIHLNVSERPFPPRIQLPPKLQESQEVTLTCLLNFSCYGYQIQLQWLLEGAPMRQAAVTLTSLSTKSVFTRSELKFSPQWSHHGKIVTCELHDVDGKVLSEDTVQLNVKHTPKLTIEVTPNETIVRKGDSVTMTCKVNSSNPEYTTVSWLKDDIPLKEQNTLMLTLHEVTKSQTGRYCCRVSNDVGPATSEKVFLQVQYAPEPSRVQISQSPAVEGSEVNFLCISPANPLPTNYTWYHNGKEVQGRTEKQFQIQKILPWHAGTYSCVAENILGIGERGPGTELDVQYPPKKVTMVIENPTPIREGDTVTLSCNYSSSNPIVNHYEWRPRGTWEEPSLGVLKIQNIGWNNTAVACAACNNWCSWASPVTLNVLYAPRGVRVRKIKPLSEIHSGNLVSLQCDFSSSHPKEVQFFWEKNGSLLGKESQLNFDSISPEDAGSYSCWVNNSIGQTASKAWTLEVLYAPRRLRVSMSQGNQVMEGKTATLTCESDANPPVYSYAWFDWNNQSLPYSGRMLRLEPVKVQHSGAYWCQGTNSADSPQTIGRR

Row | SMILES | Kd [1] [nM] | Kd [2] [nM] | Kd (cynomolgus Siglec-2/CD22) [nM]
1 | CC(=O)NCCOCCOCCOCCOCCNC(=O)CCCCCCO[C@]1(C(=O)O)C[C@H](O)[C@@H](NC(=O)CO)[C@H]([C@H](O)[C@H](O)CNC(=O)Cc2ccc(-c3nnn[nH]3)cc2)O1 [Cpd. 266, (2R,4S,5R,6R)-6-((1R,2R)-3-(2-(4-(1H-tetrazol-5-yl)phenyl)acetamido)-1,2-dihydroxypropyl)-2-((2,19-dioxo-6,9,12,15-tetraoxa-3,18-diazapentacosan-25-yl)oxy)-4-hydroxy-5-(2-hydroxyacetamido) tetrahydro-2H-pyran-2-carboxylic acid] | 1000 to 10000 | < 1000 | < 1000
2 | C#CCOCCOCCO[C@]1(C(=O)O)C[C@H](O)[C@@H](NC(=O)CO)[C@H]([C@H](O)[C@H](O)CNC(=O)Cc2ccc(C)cc2)O1 [Compound 175, (2R,4S,5R,6R)-6-((1R,2R)-1,2-dihydroxy-3-(2-(p-tolyl)acetamido)propyl)-4-hydroxy-5-(2-hydroxyacetamido)-2-(2-(2-(prop-2-yn-1-yloxy)ethoxy)ethoxy)tetrahydro-2H-pyran-2-carboxylic acid] | 1000 to 10000 | 1000 to 10000 | 1000 to 10000
3 | C#CCOCCCCCCO[C@]1(C(=O)O)C[C@H](O)[C@@H](NC(=O)CO)[C@H]([C@H](O)[C@H](O)CNC(=O)Cc2cccc(OC(F)(F)F)c2)O1 [Compound 155, (2R,4S,5R,6R)-6-((1R,2R)-1,2-dihydroxy-3-(2-(3-(trifluoromethoxy)phenyl)acetamido)propyl)-4-hydroxy-5-(2-hydroxyacetamido)-2-((6-(prop-2-yn-1-yloxy)hexyl)oxy)tetrahydro-2H-pyran-2-carboxylic acid] | 1000 to 10000 | < 1000 | < 1000
4 | C#CCOCCOCCO[C@]1(C(=O)O)C[C@H](O)[C@@H](NC(=O)CO)[C@H]([C@H](O)[C@H](O)CNC(=O)Cc2ccc(O)cc2)O1 [Compound 153, (2R,4S,5R,6R)-6-((1R,2R)-1,2-dihydroxy-3-(2-(4-hydroxyphenyl)acetamido)propyl)-4-hydroxy-5-(2-hydroxyacetamido)-2-(2-(2-(prop-2-yn-1-yloxy)ethoxy)ethoxy)tetrahydro-2H-pyran-2-carboxylic acid] | < 1000 | 1000 to 10000 | 1000 to 10000
5 | C#CCOCCOCCNc1c(NCCCCCCO[C@]2(C(=O)O)C[C@H](O)[C@@H](NC(=O)CO)[C@H]([C@H](O)[C@H](O)CNC(=O)C(F)(F)c3ccccc3)O2)c(=O)c1=O [Compound 275, (2R,4S,5R,6R)-6-((1R,2R)-3-(2,2-difluoro-2-phenylacetamido)-1,2-dihydroxypropyl)-2-((6-((3,4-dioxo-2-((2-(2-(prop-2-yn-1-yloxy)ethoxy)ethyl)amino)cyclobut-1-en-1-yl)amino)hexyl)oxy)-4-hydroxy-5-(2-hydroxyacetamido) tetrahydro-2H-pyran-2-carboxylic acid] | 1000 to 10000 | < 1000 | < 1000
6 | C#CCOCCOCCO[C@]1(C(=O)O)C[C@H](O)[C@@H](NC(=O)CC#N)[C@H]([C@H](O)[C@H](O)CNC(=O)Cc2ccc(-c3ccc(O)cc3)cc2)O1 [Compound 58, (2R,4S,5R,6R)-5-(2-cyanoacetamido)-6-((1R,2R)-1,2-dihydroxy-3-(2-(4′-hydroxy-[1,1′-biphenyl]-4-yl)acetamido)propyl)-4-hydroxy-2-(2-(2-(prop-2-yn-1-yloxy)ethoxy)ethoxy)tetrahydro-2H-pyran-2-carboxylic acid] | 1000 to 10000 | 1000 to 10000 | 1000 to 10000
7 | C#CCOc1ccccc1-c1cn([C@]2(C(=O)O)C[C@H](O)[C@@H](NC(=O)CO)[C@H]([C@H](O)[C@H](O)CNC(=O)Cc3ccc(-c4ccc(O)cc4)cc3)O2)nn1 [Compound 59, (2R,4S,5R,6R)-6-((1R,2R)-1,2-dihydroxy-3-(2-(4′-hydroxy-[1,1′-biphenyl]-4-yl)acetamido)propyl)-4-hydroxy-5-(2-hydroxyacetamido)-2-(4-(2-(prop-2-yn-1-yloxy)phenyl)-1H-1,2,3-triazol-1-yl)tetrahydro-2H-pyran-2-carboxylic acid] | 1000 to 10000 | < 1000 | 1000 to 10000

Now from value to compound:

Row | Kd [1] [nM] | Kd [2] [nM] | Kd (cynomolgus Siglec-2/CD22) [nM] | SMILES
8 | < 1000 | < 1000 | < 1000 | C#CCCCCCCO[C@]1(C(=O)O)C[C@H](O)[C@@H](NC(=O)CO)[C@H]([C@H](O)[C@H](O)CNC(=O)Cc2ccc(C(F)F)cc2)O1 [Compound 212, (2R,4S,5R,6R)-6-((1R,2R)-3-(2-(4-(difluoromethyl)phenyl)acetamido)-1,2-dihydroxypropyl)-4-hydroxy-5-(2-hydroxyacetamido)-2-(oct-7-yn-1-yloxy)tetrahydro-2H-pyran-2-carboxylic acid]
9 | 1000 to 10000 | < 1000 | < 1000 | C#CCCCCCCO[C@]1(C(=O)O)C[C@H](O)[C@@H](NC(=O)CO)[C@H]([C@H](O)[C@H](O)CNC(=O)c2cccc(Oc3ccccc3)c2)O1 [Compound 40, (2R,4S,5R,6R)-6-((1R,2R)-1,2-dihydroxy-3-(3-phenoxybenzamido)propyl)-4-hydroxy-5-(2-hydroxyacetamido)-2-(oct-7-yn-1-yloxy) tetrahydro-2H-pyran-2-carboxylic acid]
10 | < 1000 | < 1000 | < 1000 | C#Cc1ccc(CO[C@]2(C(=O)O)C[C@H](O)[C@@H](NC(=O)CO)[C@H]([C@H](O)[C@H](O)CNC(=O)Cc3ccc(Cl)cc3)O2)cc1 [Compound 114, (2R,4S,5R,6R)-6-((1R,2R)-3-(2-(4-chlorophenyl)acetamido)-1,2-dihydroxypropyl)-2-((4-ethynylbenzyl)oxy)-4-hydroxy-5-(2-hydroxyacetamido)tetrahydro-2H-pyran-2-carboxylic acid]
11 | < 1000 | < 1000 | < 1000 | C#CCOc1ccc(CO[C@]2(C(=O)O)C[C@H](O)[C@@H](NC(=O)CO)[C@H]([C@H](O)[C@H](O)CNC(=O)Cc3ccc(-c4ccc(O)cc4)c(Cl)c3)O2)cc1 [Compound 47, (2R,4S,5R,6R)-6-((1R,2R)-3-(2-(2-chloro-4′-hydroxy-[1,1′-biphenyl]-4-yl)acetamido)-1,2-dihydroxypropyl)-4-hydroxy-5-(2-hydroxyacetamido)-2-((4-(prop-2-yn-1-yloxy)benzyl)oxy)tetrahydro-2H-pyran-2-carboxylic acid]
12 | < 1000 | < 1000 | < 1000 | CC(=O)NCCOCCOCCOCCOCCC(=O)NCCCCCCO[C@]1(C(=O)O)C[C@H](O)[C@@H](NC(=O)CO)[C@H]([C@H](O)[C@H](O)CNC(=O)Cc2ccc(-c3ccccc3)cc2)O1 [Compound 219, (2R,4S,5R,6R)-6-((1R,2R)-3-(2-([1,1′-biphenyl]-4-yl)acetamido)-1,2-dihydroxypropyl)-2-((2,18-dioxo-6,9,12,15-tetraoxa-3,19-diazapentacosan-25-yl)oxy)-4-hydroxy-5-(2-hydroxyacetamido)tetrahydro-2H-pyran-2-carboxylic acid]

From patent US20250064941A1, “SIGLEC LIGANDS, CONJUGATES, AND METHODS OF USE THEREOF” (Osprey Biopharmaceuticals, Inc., priority 2023, published 2025)
